# Results as given in patent US20260138948A1, “N-SUBSTITUTED INDOLES AS 5-HYDROXYTRYPTAMINE (5-HT) SEROTONIN RECEPTOR AGONISTS AND ANTAGONISTS” (Terran Biosciences Inc., priority 2021, published 2026).
# Legend:
# [1] = test system: 5HT2A sensor; conditions: general statement on known hallucinogens and non-hallucinogenic congeners; cited from earlier work
# [2] = Metabolic stability in human liver microsomes; type: in vitro ADME; conditions: for difference in half-life and intrinsic clearance compared with reference compound (R)-1-(5-methoxy-1H-indol-1-yl)-N,N-dimethylpropan-2-amine / microsomal CLint at 1 μM: human liver microsomes; for difference in half-life and intrinsic clearance compared with reference compound (R)-1-(5-methoxy-1H-indol-1-yl)-N,N-dimethylpropan-2-amine: comment on Table 2; for half-life at 1 μM / microsomal CLint at 1 μM / CLint scaled at 1 μM: liver microsomes (pooled); for half-life at 1 μM: human liver microsomes 0.5 mg/mL, test compound 1.0 μM, 37° C., NADPH; for microsomal CLint at 1 μM: intrinsic clearance = 0.693/T1/2/mg microsome protein per mL, read-out: CLint(mic); for CLint scaled at 1 μM: human, scaled from CLint(mic) with 45 mg microsomal protein/g liver and 20 g liver/kg
# Method: The test compound at 1.0 μM in singlet, or positive controls including Testosterone (CYP3A4 substrate), Propafenone (CYP2D6 substrate) or Diclofenac (CYP2C9 substrate) was incubated with the liver microsomes (Corning, Xenotech, or other credible vendor, pooled from multiple donors) at 0.5 mg/mL, respectively. The mixture was warmed up at 37° C. for 10 minutes and the reactions were initiated by the addition of a NADPH regenerating system (˜1.0 mM). The test compound incubated with the liver microsomes at 37° C. without the NADPH regenerating system served as the negative control reaction.
# The reaction samples were removed at multiple time points (such as 0, 5, 15, 30, 45 and 60 minutes) and the sample without NADPH (NCF) was removed at 60 minutes. All the samples were immediately mixed with cold acetonitrile containing internal standard (IS) to stop the reaction.
# Samples were analyzed by LC/MS/MS and the disappearance of test compound were assessed base on peak area ratios of analyte/IS (no standard curve). The microsomal intrinsic clearance and T1/2 values were calculated using the following equation: […]
# The microsomal intrinsic clearance and T1/2 values were calculated using the following equation: […]
# In these experiments the comparator compound was a suitable reference standard. In one embodiment the comparator compound was (R)-1-(5-methoxy-1H-indol-1-yl)-N,N-dimethylpropan-2-amine.
# [3] = target: T1, 5-HT2A receptor (Homo sapiens, UniProt P28223); assay: Calcium mobilization assay, agonist format, 5-HT2A; type: cell-based; conditions: % activity relative to control ligand, read-out: 5-HT2A agonist efficacy @10 µM
# T1 construct: host or cells: unnamed cell lines
# T1 sequence (P28223 whole entry): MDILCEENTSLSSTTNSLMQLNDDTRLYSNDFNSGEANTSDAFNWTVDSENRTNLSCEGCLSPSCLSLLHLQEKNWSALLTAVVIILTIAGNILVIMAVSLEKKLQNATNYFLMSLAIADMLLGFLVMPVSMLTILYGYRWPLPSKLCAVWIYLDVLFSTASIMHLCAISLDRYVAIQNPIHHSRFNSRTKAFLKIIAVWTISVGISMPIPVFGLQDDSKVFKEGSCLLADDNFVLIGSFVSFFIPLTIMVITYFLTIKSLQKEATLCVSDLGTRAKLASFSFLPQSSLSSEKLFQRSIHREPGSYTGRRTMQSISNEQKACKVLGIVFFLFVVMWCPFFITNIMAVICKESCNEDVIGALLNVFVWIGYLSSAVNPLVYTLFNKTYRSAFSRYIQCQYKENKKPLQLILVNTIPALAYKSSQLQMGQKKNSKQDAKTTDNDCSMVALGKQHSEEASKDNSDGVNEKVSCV
# Method: (§1) Protocol—in vitro testing at select 5-hydroxytryptamine (5-HT; serotonin) receptors was conducted.
# (§2) • 1. Cell lines were expanded from freezer stocks according to standard procedures. • 2. Cells were seeded in a total volume of 20 μL into black-walled, clear-bottom, Poly-D-lysine coated 384-well microplates and incubated at 37° C. for the appropriate time prior to testing.
# (§3) • 1. Assays were performed in 1× Dye Loading Buffer consisting of 1× Dye, 1× Additive A and • 2.5 mM Probenecid in HBSS/20 mM Hepes. Probenicid was prepared fresh. • 2. Cells were loaded with dye prior to testing. Media was aspirated from cells and replaced with 20 μL Dye Loading Buffer. • 3. Cells were incubated for 30-60 minutes at 37° C.
# (§4) • 1. For agonist determination, cells were incubated with sample to induce response. • 2. After dye loading, cells were removed from the incubator and 10 μL HBSS/20 mM Hepes was added. 3× vehicle was included in the buffer when performing agonist dose curves to define the EC80 for subsequent antagonist assays. Cells were incubated for 30 minutes at room temperature in the dark to equilibrate plate temperature. • 3. Intermediate dilution of sample stocks was performed to generate 4× sample in assay buffer. • 4. Compound agonist activity was measured on a FLIPR Tetra (MDS). Calcium mobilization was monitored for 2 minutes and 10 μL 4× sample in HBSS/20 mM Hepes was added to the cells 5 seconds into the assay.
# (§5) • 1. Compound activity was analyzed using CBIS data analysis suite (ChemInnovation, CA). • 2. For agonist mode assays, percentage activity is calculated using the following formula: % Activity=100%×(mean RFU of test sample−mean RFU of vehicle control)/(mean MAX RFU control ligand −mean RFU of vehicle control). • 3. For positive allosteric mode assays, percentage modulation was calculated using the following formula: % Modulation=100%×((mean RFU of test sample−mean RFU of EC20 control)/(mean RFU of MAX control ligand −mean RFU of EC20 control)). • 4. For antagonist and negative allosteric modulation mode assays, percentage inhibition is calculated using the following formula: % Inhibition=100%×(1−(mean RFU of test sample−mean RFU of vehicle control)/(mean RFU of EC80 control−mean RFU of vehicle control)).
# [4] = target: T1, 5-HT2A receptor; assay: Calcium mobilization assay, antagonist format, 5-HT2A; type: cell-based; conditions: @100 nM; agonist challenge at EC80
# Method: as §1, §2, §3
# (§6) • 1. For antagonist determination, cells were pre-incubated with sample followed by agonist challenge at the EC80 concentration. • 2. Intermediate dilution of sample stocks was performed to generate 3× sample in assay buffer. • 3. After dye loading, cells were removed from the incubator and 10 μL 3× sample was added. Cells were incubated for 30 minutes at room temperature in the dark to equilibrate plate temperature. Vehicle concentration was 1%. • 4. Compound antagonist activity was measured on a FLIPR Tetra (MDS). Calcium mobilization was monitored for 2 minutes and 10 μL EC80 agonist in HBSS/20 mM Hepes was added to the cells 5 seconds into the assay.
# as §5
# Compounds were evaluated as 5-HT2A antagonists at 100 nM (one hundred nanomolar), or may be evaluated at a higher concentration. For research comparative purposes, a literature compound—(R)-1-(5-methoxy-1H-indol-1-yl)-N,N-dimethylpropan-2-amine (AAZ-A-154) (Cell 2021, 184, 2779-2792.e18)—was included in the screening assays. Additionally, 5-hydroxytryptamine/serotonin (5-HT) was included in the screening assay as a positive control agonist, and Altanserin HCl was included as a 5-HT2A antagonist positive control.
# [5] = target: T2, 5-HT2B receptor (Homo sapiens, UniProt P41595); assay: Calcium mobilization assay, agonist format, 5-HT2B; type: cell-based; conditions: % activity relative to control ligand, read-out: 5-HT2B agonist efficacy @5 µM
# T2 construct: host or cells: unnamed cell lines
# T2 sequence (P41595 whole entry): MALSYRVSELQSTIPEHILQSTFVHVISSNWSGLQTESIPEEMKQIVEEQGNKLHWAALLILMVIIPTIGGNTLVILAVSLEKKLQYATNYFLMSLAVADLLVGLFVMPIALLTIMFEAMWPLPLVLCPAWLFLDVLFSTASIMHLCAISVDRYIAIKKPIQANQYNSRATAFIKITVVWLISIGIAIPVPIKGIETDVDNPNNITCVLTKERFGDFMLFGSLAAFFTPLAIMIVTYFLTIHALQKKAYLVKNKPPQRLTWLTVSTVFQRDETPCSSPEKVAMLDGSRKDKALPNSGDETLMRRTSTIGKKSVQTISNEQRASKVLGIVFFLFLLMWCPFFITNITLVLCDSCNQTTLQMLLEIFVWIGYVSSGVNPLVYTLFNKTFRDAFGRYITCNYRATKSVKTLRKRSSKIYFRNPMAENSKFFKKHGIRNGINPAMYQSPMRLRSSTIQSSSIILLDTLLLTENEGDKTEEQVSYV
# Method: as §1, §2, §3, §4, §5
# [6] = target: T3, 5-HT2C receptor (Homo sapiens, UniProt P28335); assay: Calcium mobilization assay, antagonist format, 5-HT2C; type: cell-based; conditions: for inhibition at 10 µM: agonist challenge at EC80; for antagonism of the 5-HT2C receptor: 10 μM (ten micromolar)
# T3 construct: host or cells: unnamed cell lines
# T3 sequence (P28335 33-458): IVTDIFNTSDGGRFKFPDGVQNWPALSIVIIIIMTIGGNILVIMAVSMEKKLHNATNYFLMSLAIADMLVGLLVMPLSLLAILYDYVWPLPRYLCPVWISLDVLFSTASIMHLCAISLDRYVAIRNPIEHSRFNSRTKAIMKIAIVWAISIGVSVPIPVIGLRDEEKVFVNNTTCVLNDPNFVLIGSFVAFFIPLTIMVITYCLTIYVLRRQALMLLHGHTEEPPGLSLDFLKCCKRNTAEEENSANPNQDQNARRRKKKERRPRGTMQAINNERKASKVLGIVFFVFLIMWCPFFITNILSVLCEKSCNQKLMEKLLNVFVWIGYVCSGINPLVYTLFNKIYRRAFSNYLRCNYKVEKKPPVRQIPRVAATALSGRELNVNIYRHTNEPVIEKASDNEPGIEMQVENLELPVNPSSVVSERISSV
# Method: as §1, §2, §3, §6, §5
# […] For research comparative purposes, a literature compound—(R)-1-(5-methoxy-1H-indol-1-yl)-N,N-dimethylpropan-2-amine (AAZ-A-154) (Cell 2021, 184, 2779-2792.e18)—was included in the screening assays. Additionally, 5-hydroxytryptamine/serotonin (5-HT) was included in the screening assay as a positive control agonist, and SB242084 was used in the screening assay as a literature 5-HT2C antagonist positive control. […] Compounds 2, 3 and 93 each achieved greater than 75% antagonism of the 5-HT2C receptor, with compounds 3 and 93 achieving approximately 98% and 97% antagonism, respectively.
Compound,activation of the 5HT2A sensor assay in agonist mode [1],activation at 10 µM [3],inhibition at 0.1 µM [4],activation at 5 µM [5],inhibition at 10 µM [6],other results
CN[C@H](C)Cc1ccc2c(c1)OCO2 [L-MDMA],do not activate the 5HT2A sensor assay in agonist mode,–,–,–,–,–
"[2H]C([2H])([2H])Oc1ccc2c(ccn2C([2H])([2H])[C@]([2H])(N(C([2H])([2H])[2H])C([2H])([2H])[2H])C([2H])([2H])[2H])c1 [Compound 152, (2R)-1,1,1,2,3,3-hexadeuterio-3-[5-(trideuteriomethoxy)indol-1-yl]-N,N-bis(trideuteriomethyl)propan-2-amine]",–,–,–,–,–,"difference in half-life and intrinsic clearance compared with reference compound (R)-1-(5-methoxy-1H-indol-1-yl)-N,N-dimethylpropan-2-amine [2]: significant and beneficial differences in half-life and intrinsic clearance; half-life at 1 μM [2]: 1.91 h; microsomal CLint at 1 μM [2]: 12.4 µL/min/mg; CLint scaled at 1 μM [2]: 11.1 mL/min/kg"
"C[C@H](Cn1ccc2cc(OC3CC3)ccc21)N(C)C [Compound 1, (R)-1-(5-cyclopropoxy-1H-indol-1-yl)-N,N-dimethylpropan-2-amine]",–,-1.4%,-13.2%,-0.7%,20.7%,–
"COc1cc(CC(C)N)c(OC)cc1I (stereo not shown) [DOI, 2,5-dimethoxy-4-iodoamphetamine]",activate the 5HT2A sensor assay in agonist mode,–,–,–,–,–
"CCN(CC)C(=O)[C@@H]1C=C2c3cccc4[nH]cc(c34)C[C@H]2N(C)C1 [LSD, lysergic acid diethylamide]",activate the 5HT2A sensor assay in agonist mode,–,–,–,–,–
"C[C@H](Cn1ccc2cc(S(=O)(=O)C3CC3)ccc21)N(C)C [Compound 4, (2R)-1-(5-cyclopropylsulfonylindol-1-yl)-N,N-dimethyl-propan-2-amine]",–,-1.5%,-9.1%,-0.6%,6.2%,–
"COc1ccn2c(CC(C)N(C)C)ncc2c1 (racemic) [Compound 92, (R/S)-1-(7-methoxyimidazo[1,5-a]pyridin-3-yl)-N,N-dimethylpropan-2-amine]",–,0.3%,1.6%,2%,7.2%,–
"C[C@H](Cn1ccc2cc(S(F)(F)(F)(F)F)ccc21)N(C)C [Compound 2, (2R)-N,N-dimethyl-1-[5-(pentafluoro-λ^6-sulfanyl)indol-l-yl]propan-2-amine]",–,4.4%,-0.8%,6.4%,76.4%,–
CCN(CC)C(=O)[C@@H]1C=C2c3cccc4[nH]c(Br)c(c34)C[C@H]2N(C)C1 [BOL148],do not activate the 5HT2A sensor assay in agonist mode,–,–,–,–,–
"CC(Cc1ncn2cc(F)ccc12)N(C)C (racemic) [Compound 93, (R/S)-1-(6-fluoroimidazo[1,5-a]pyridin-1-yl)-N,N-dimethylpropan-2-amine]",–,1.8%,5.7%,2.7%,97.1%,antagonism of the 5-HT2C receptor [6]: ~97%
"[2H]C([2H])([2H])Oc1ccc2c(ccn2C([2H])([2H])[C@]([2H])(N(C)C)C([2H])([2H])[2H])c1 [Compound 151, (2R)-1,1,1,2,3,3-hexadeuterio-N,N-dimethyl-3-[5-(trideuteriomethoxy)indol-1-yl]propan-2-amine]",–,–,–,–,–,"difference in half-life and intrinsic clearance compared with reference compound (R)-1-(5-methoxy-1H-indol-1-yl)-N,N-dimethylpropan-2-amine [2]: most significant difference in half-life and intrinsic clearance ratio; half-life at 1 μM [2]: 2 h; microsomal CLint at 1 μM [2]: 11.5 µL/min/mg; CLint scaled at 1 μM [2]: 10.4 mL/min/kg"
"C[C@H](Cn1ccc2c3c(ccc21)OCCC3)N(C)C [Compound 3, (R)-1-(8,9-dihydropyrano[3,2-e]indol-3(7H)-yl)-N,N-dimethylpropan-2-amine]",–,9.7%,-7.3%,1%,98.1%,antagonism of the 5-HT2C receptor [6]: approximately 98%
CCN(CC)CCc1c[nH]c2cc(F)ccc12 [Compound 6-F-DET],do not activate the 5HT2A sensor assay in agonist mode,–,–,–,–,–
"[2H]C([2H])([2H])N(C([2H])([2H])[2H])[C@]([2H])(C([2H])([2H])[2H])C([2H])([2H])n1ccc2cc(OC)ccc21 [Compound 6, (2R)-1,1,1,2,3,3-hexadeuterio-3-(5-methoxyindol-1-yl)-N,N-bis(trideuteriomethyl)propan-2-amine]",–,–,–,–,–,"difference in half-life and intrinsic clearance compared with reference compound (R)-1-(5-methoxy-1H-indol-1-yl)-N,N-dimethylpropan-2-amine [2]: significant and beneficial differences in half-life and intrinsic clearance; half-life at 1 μM [2]: 1.82 h; microsomal CLint at 1 μM [2]: 12.7 µL/min/mg; CLint scaled at 1 μM [2]: 11.4 mL/min/kg"
COc1ccc2c(CCN(C)C)c[nH]c2c1 [Compound 6-MeO-DMT],do not activate the 5HT2A sensor assay in agonist mode,–,–,–,–,–
"O=C(c1ccc(F)cc1)C1CCN(CCn2c(=O)[nH]c3ccccc3c2=O)CC1 [Ketanserin, ketanserin]",do not activate the 5HT2A sensor assay in agonist mode,–,–,–,–,–
"CN(C)CCc1c[nH]c2ccccc12 [DMT, N,N-dimethyltryptamine]",activate the 5HT2A sensor assay in agonist mode,–,–,–,–,–
